Literature values as cited in patent publication US20220160668A1, “FORMULATIONS AND METHODS FOR TREATING CONDITIONS OF THE EYE” (Sight Sciences, Inc., priority 2020, published 2022).

Conditions: antibiotic level of azithromycin (1%)

In the case of `CC[C@H]1OC(=O)[C@H](C)[C@@H](O[C@H]2C[C@@](C)(OC)[C@@H](O)[C@H](C)O2)[C@H](C)[C@@H](O[C@@H]2O[C@H](C)C[C@H](N(C)C)[C@H]2O)[C@](C)(O)C[C@@H](C)CN(C)[C@H](C)[C@@H](O)[C@]1(C)O` [azithromycin], the “effect on phase transition temperature of meibum lipids and lipid ordering” value is given as “can improve the phase transition temperature of meibum lipids and lipid ordering”.
